Concentration and MIC data for four molecules are collected here from patent US4937332A, “Cephalosporin derivatives” (Taisho Pharmaceutical Co., Ltd., priority 1987, dated 1990).

Converted amounts (≈) assume the structure as drawn. Structures can show the parent of a compound that is named as a salt. Where two headings read alike, the source gives them in different places.

The nature of one series: in vivo. Conditions: rat, blood, 50 mg/kg in 5% gum arabic, male wister rats, bioassay. How it is done: Three male wister rats (7 weeks old) for each group were administered orally with the test compounds, and the change of the concentration of the compound in blood was measured.
Dosage of the test compound:
50 mg/kg (suspended in 5% gum arabic)
Quantitative method: Bioasssay
(test bacterium: Escherichia coil SC507)

Series [1] has as its system Klebsiella pneumoniae T-25. In words: Minimum inhibitory concentration, agar plate dilution method. The series is classed as cell-based. How it is done:
(§1) The antibacterial activity against various bacteria was measured by the agar plate dilution method (inoculum size 10^6 cells/ml), and the results are shown in the following Table 1.

The test system of series [2] is Morganella morganii IID 602. The description is as above. The series is classed as cell-based. How it is done:
as §1

The subject of a further series is Escherichia coli A13. Described as above. The series is classed as cell-based. Here is the method: as §1
Series [3] deals with Escherichia coli NIJH JC-2. The series is described as above. The series is classed as cell-based. Here is the method: as §1
Series [4] has as its system Staphylococcus aureus 209P-JC. The description is as above. As to conditions: read-out: Minimum Inhibitory Concentration. The format is cell-based. How it is done:
as §1

For series [5], the system named is Staphylococcus aureus K-1. Described as above. The format is cell-based. How it is done: as §1
Where [6] appears, read: Klebsiella pneumoniae, T25, read-out: Minimum Inhibitory Concentration.
Where [7] appears, read: Morganella morganii, IID602, read-out: Minimum Inhibitory Concentration.
Where [8] appears, read: Escherichia coli, A13, read-out: Minimum Inhibitory Concentration.
[9] abbreviates: Escherichia coli, NIJHJC2, read-out: Minimum Inhibitory Concentration.
[10] abbreviates: Staphylococcus aureus, K1, read-out: Minimum Inhibitory Concentration.
[11] abbreviates: T25, Klebsiella pneumoniae T-25, inoculum size 10^6 cells/ml, read-out: Minimum Inhibitory Concentration.
Setting [12] is: IID602, Morganella morganii IID 602, inoculum size 10^6 cells/ml, read-out: Minimum Inhibitory Concentration.
[13] abbreviates: Escherichia coli A13, inoculum size 10^6 cells/ml, read-out: Minimum Inhibitory Concentration.
Setting [14] is: NIJHJC2, Escherichia coli NIJH JC-2, inoculum size 10^6 cells/ml, read-out: Minimum Inhibitory Concentration.
Setting [15] is: Staphylococcus aureus 209P-JC, inoculum size 10^6 cells/ml.

In “in vivo” (Four Hours after oral administration), `COC(=O)/C=C\SC1=C(C(=O)[O-])N2C(=O)[C@@H](NC(=O)/C(=N\O)c3csc(N)n3)[C@H]2SC1.[Na+]` yielded a concentration at 4 h of 16900 ng/mL. This molecule came in with a concentration at 1 h in the series “in vivo” (One Hour after oral administration) of 11000 ng/mL. In “in vivo” (Two Hours after oral administration), this molecule showed a concentration at 2 h of 14200 ng/mL. Moreover, the MIC in series [1] (setting [6]) was 0.2 µg/mL; in series [2] (setting [7]) it was 0.05 µg/mL; with Escherichia coli A13 (setting [8]), 6.25 µg/mL; in series [3] (setting [9]), ≤ 0.025 µg/mL; in series [4] (Staphylococcus aureus, 209P), 0.2 µg/mL; in series [5] (setting [10]) it was 3.13 µg/mL.
Turning to `COC(=O)/C=C\SC1=C(C(=O)O)N2C(=O)[C@@H](NC(=O)/C(=N\OCC(=O)O)c3csc(N)n3)[C@H]2SC1` [Test compound D], the MIC is 0.39 µg/mL (≈ 0.717 µM) in series [1] (setting [11]); 0.25 µg/mL (≈ 0.46 µM) in series [2] (setting [12]); > 100 µg/mL with Escherichia coli A13 (setting [13]); 0.05 µg/mL (≈ 0.092 µM) in series [3] (setting [14]); 6.25 µg/mL (≈ 11.5 µM) in series [4] (setting [15]).
For the molecule `C=CC1=C(C(=O)O)N2C(=O)[C@@H](NC(=O)/C(=N\OCC(=O)O)c3csc(N)n3)[C@H]2SC1` [Test compound C, Cefixime sodium salt], the MIC in series [1] (setting [11]) is 12.5 µg/mL; in series [2] (setting [12]) it was 0.39 µg/mL; in the series on Escherichia coli A13 (setting [13]), > 100 µg/mL; in series [3] (setting [14]), 0.05 µg/mL; in series [4] (setting [15]) it was 12.5 µg/mL; in series [5] (K1, Staphylococcus aureus K-1, inoculum size 10^6 cells/ml, read-out: Minimum Inhibitory Concentration) it was > 100 µg/mL.
As for `CC1=C(C(=O)O)N2C(=O)[C@@H](NC(=O)[C@H](N)c3ccccc3)[C@H]2SC1` [Test compound B, Cephalexin], the MIC in series [1] (setting [6]) was 100 µg/mL (≈ 288 µM); in series [2] (setting [7]) it was > 100 µg/mL; in the series on Escherichia coli A13 (setting [8]), > 100 µg/mL; in series [3] (setting [9]), 3.13 µg/mL (≈ 9.01 µM); in series [4] (Staphylococcus aureus, 209P), 0.78 µg/mL (≈ 2.25 µM); in series [5] (setting [10]) it was > 100 µg/mL.
